From PubChem BioAssay (NCI) come the findings set out here.

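In this assay, cells in 96-well plates receive the compound at five concentrations for 48 hours. Endpoints are linearly interpolated between the surrounding concentrations. GI50: concentration for 50% inhibition of growth. TGI: concentration producing complete growth inhibition.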

Some test systems named below: RXF-631 renal; MDA-MB-231 breast; MDA-MB-435; P388 leukemia; SN12K1 renal; P388/ADR leukemia.
Experiment in all cases: NCI tumour cell line growth inhibition, 48 h

For the molecule `c1ccc(N=c2nc(N3CCOCC3)ss2)cc1`, the TGI in the experiment on RXF-631 renal amounted to 31.7 µM.

Regarding `CCOc1ccc(/C(C=O)=C(\Cl)c2ccc(OC)c(OC)c2)cc1`, the TGI in the experiment on RXF-631 renal is > 100 µM.

Turning to `Cc1cc2c(C(C)C)c(O)c(O)c(C=NCCO)c2c(O)c1-c1c(C)cc2c(C(C)C)c(O)c(O)c(C=NCCO)c2c1O`, the TGI in the experiment on RXF-631 renal came to 5.35 µM.

On to `O=C(Nc1ccc(Sc2ccc(N=Nc3c(O)c(S(=O)(=O)O)cc4cc(S(=O)(=O)O)ccc34)cc2)cc1)c1ccc(N=Nc2c(O)ccc3c(S(=O)(=O)O)cc(S(=O)(=O)O)cc23)cc1`, for which, in the experiment on RXF-631 renal, the TGI was > 100 µM.

With `CC(=O)O[C@H]1C=CC(=O)C(C)CC1C` (stereo not given in full), the TGI with RXF-631 renal is > 100 µM.

As for `CCC(=O)NC(Nc1cccc(F)c1)(C(F)(F)F)C(F)(F)F`, the TGI in the experiment on MDA-MB-231 breast and with MDA-MB-435 was > 100 µM each time.

Consider `Clc1ccc(CNc2nc(Cl)c3[nH]cnc3n2)cc1Cl`, for which the TGI with MDA-MB-231 breast and in the experiment on MDA-MB-435 was > 100 µM in each case.

With `COc1ccc(-c2nn(-c3cccc(NC(=O)Nc4ccccc4)c3)cc2-c2ccncc2)cc1Cl`, in the experiment on MDA-MB-231 breast, the GI50 was 2.53 µM and the TGI amounted to 8.01 µM. Also, in the experiment on MDA-MB-435, the GI50 is 2.03 µM and the TGI was determined as 5.25 µM.

With `NC1(C(=O)O)CCc2ccc(N(CCCl)CCCl)cc2C1` (stereo not given), the TGI in the experiment with P388 leukemia is 7.27 µM; with SN12K1 renal it was > 100 µM; with P388/ADR leukemia, 35.1 µM.

On to `CN1C[C@H]2[C@@H](C1=O)[C@H](c1ccccc1)ON2C`, for which the TGI with MDA-MB-231 breast and in the experiment with MDA-MB-435 was > 100 µM in each case.

For the molecule `O=C(O)C1CCC(=O)N1S(=O)(=O)c1ccccc1` (stereo not given), the TGI with P388 leukemia, in the experiment with SN12K1 renal and in the experiment with P388/ADR leukemia was > 100 µM in each case.

As for `Fc1ccc(-c2nn3c(-c4cc(C(F)(F)F)cc(C(F)(F)F)c4)nnc3s2)cc1`, the GI50 in the experiment with MDA-MB-231 breast is 1.79 µM; in the experiment with MDA-MB-435 it was > 50 µM. Further, the TGI in the experiment with MDA-MB-231 breast and with MDA-MB-435 was > 50 µM in each case.
